Measurements as given in ChEMBL document CHEMBL3244349, “5,6,7,8-Tetrahydroguinolines. 4. Antiulcer and antisecretory activity of 5,6,7,8-tetrahydroquinolinenitriles and -thioamides” (1977).
Active and inactive are the calls of the source. The calls are words filed in the database; no cut-off is given here.

How the values were obtained:
[1] = test system: Rattus norvegicus; assay: Antisecretory activity in four-hours pylorus-ligated Sprague-Dawley rat assessed as inhibition of basal gastric secretion at 10 mg/kg administered intraduodenally; format: functional, organism-based; set-up: dose 10 mg/kg; conditions: Stomach
[2] = test system: Rattus norvegicus; assay: Antiulcer activity in po dosed Sprague-Dawley rat assessed as dose required to inhibition of cold-restraint induced gastric erosions after 3 hrs; format: functional, Stomach
[3] = test system: Rattus norvegicus; assay: Antisecretory activity in four-hours pylorus-ligated Sprague-Dawley rat assessed as inhibition of basal gastric secretion at 30 mg/kg administered intraduodenally; format: functional; conditions: Stomach; for inhibition in vivo at 30 mg/kg: 4 h, route intraduodenal

Compound	inhibition [1]	Effective oral dose inhibiting gastric erosions [2] [mg/kg]	inhibition [3]	inhibition in vivo at 30 mg/kg [3] [%]
Cc1cnc2c(c1)CCCC2C(N)=S.Cl (centres undefined) [TIQUINAMIDE HYDROCHLORIDE]	Active	10	–	–
Cc1cnc2c(c1)CCCC2(C)C(N)=S.Cl (centres undefined)	–	100	inactive	–
NC(=S)C1CCCc2cc3c(nc21)CCCCC3 (centres undefined)	–	30	–	< 70
Cl.NC(=S)C1CCCc2cc3ccccc3nc21 (centres undefined)	–	30	inactive	–
Cc1cc2c([n+]([O-])c1)C(C#N)CCC2 (centres undefined)	–	100	inactive	–
NC(=S)C1CCCc2c1ncc1c2CCCC1 (centres undefined)	–	30	–	< 70
Cc1cnc2c(c1C)CCCC2C(N)=S (centres undefined)	–	–	–	> 70
Cc1cnc2c(c1)CCCC2C(=S)NCCCc1ccccc1.Cl (centres undefined)	–	100	inactive	–
CNC(=S)C1(C(=S)NC)CCCc2cccnc21.Cl	–	100	inactive	–
CNC(=S)C1(OC)CCCc2cc(C)cnc21 (centres undefined)	–	–	inactive	–
Cc1ccnc2c1CCCC2C(N)=S.Cl (centres undefined)	Active	30	–	–
Cc1cnc2c(c1)CC(C)CC2C(N)=S.Cl (centres undefined)	–	10	–	> 70
CNC(=S)C1CCCc2c1ncc1c2CCCC1 (centres undefined)	–	100	inactive	–
Cc1cnc2c(c1)CCCC2C(=S)N(C)C (centres undefined)	–	100	inactive	–
Cc1cnc2c(c1)CCC2C(N)=S.Cl (centres undefined)	–	30	inactive	–
NC(=S)c1cccc2cccnc12	Active	–	–	–
CNC(=S)C1(C(=S)NC)CCc2cc3ccccc3nc21.Cl	–	100	inactive	–
Cl.NC(=S)C1CCCc2cc3c(nc21)CCC3 (centres undefined)	–	100	–	< 70
Cc1cnc2c(c1)CCCC2C1=NCCCN1.Cl (centres undefined)	–	100	inactive	–
NC(=S)C1CCCc2cc3c(nc21)CCCC3 (centres undefined)	–	100	–	< 70
Cc1cnc2c(c1)CCCC2C#N.Cl (centres undefined)	–	100	–	< 70
Cl.NC(=S)C1CCc2cc3c(nc21)CCC3 (centres undefined)	–	100	–	< 70
Cl.NC(=S)C1CCCCc2cc3c(nc21)CCCCC3 (centres undefined)	–	100	inactive	–
Cc1cnc2c(c1)CCCC2c1nc(C)cs1.Cl (centres undefined)	–	100	inactive	–
Cc1cnc2c(c1)CCCC2C(=S)Nc1ccccc1 (centres undefined)	–	100	inactive	–
N#CC1CCCc2cccnc21 (centres undefined)	–	–	–	< 70

Compound	inhibition [1]	Effective oral dose inhibiting gastric erosions [2] [mg/kg]	inhibition [3]	inhibition in vivo at 30 mg/kg [3] [%]
Cc1cnc2c(c1)C(C)CCC2C(N)=S.Cl (centres undefined)	Active	30	–	–
Cc1cnc2c(c1)CCCC2C(N)=O (centres undefined)	–	100	–	–
Cc1cnc2c(c1)CCCC2C1=NCCN1.Cl (centres undefined)	–	100	inactive	–
Cc1cc(-c2ccccc2)c2c(n1)C(C(N)=S)CCC2 (centres undefined)	–	–	inactive	–
NC(=S)c1cccc2c1NCCC2	–	–	inactive	–
CCCCNC(=S)C1CCCc2cc(C)cnc21.Cl (centres undefined)	–	100	–	< 70
Cl.NC(=S)C1CCCc2ccc(-c3ccccc3)nc21 (centres undefined)	–	30	inactive	–
NC(=S)Cc1ccc2c(n1)CCCC2	–	30	inactive	–
CC(C)(C)c1ccc2c(n1)C(C(N)=S)CCC2 (centres undefined)	–	30	inactive	–
N#CC1CCCc2ccc(-c3ccccc3)nc21 (centres undefined)	–	100	inactive	–
CNC(=S)C1CCCc2cc3ccccc3nc21 (centres undefined)	–	–	–	< 10
CCc1ccc2c(n1)C(C(N)=S)CCC2 (centres undefined)	–	–	–	< 70
NC(=O)C1CCCc2ccc(-c3ccccc3)nc21 (centres undefined)	–	100	–	–
Cc1ccc2c(n1)C(C(N)=S)CCC2 (centres undefined)	Active	10	–	–
CNC(=S)C1(C(=S)NC)CCc2cc(C)cnc21	–	100	inactive	–
CCCCc1ccc2c(n1)C(C(N)=S)CCC2 (centres undefined)	–	100	–	< 70
CC(=O)OC1(C(N)=S)CCCc2cc(C)cnc21 (centres undefined)	–	–	inactive	–
CNC(=S)C1CCCc2cccnc21.Cl (centres undefined)	Active	3	–	–
Cc1cnc2c(c1)CCC(C)(C)C2C(N)=S.Cl (centres undefined)	–	100	inactive	–
Cc1cc2c([n+]([O-])c1)C(C(N)=S)CCC2 (centres undefined)	–	100	inactive	–
Cc1cc(C)c2c(n1)C(C(N)=S)CCC2 (centres undefined)	–	–	–	< 70
Cl.NC(=S)C1CCCc2cccnc21 (centres undefined)	Active	3	–	–
CNC(=S)C1CCCc2cc(C)cnc21 (centres undefined)	–	30	–	< 10
CC1CNC2C(CCCC2C(N)=S)C1 (centres undefined)	–	–	inactive	–
Cc1cnc2c(c1)CCCC2C(=S)NCc1ccccc1.Cl (centres undefined)	–	100	inactive	–
